Data reported in ChEMBL document CHEMBL1201862, “PubChem BioAssay data set” (2004).
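Interpolation was linear, between the two tested concentrations surrounding the appropriate level; five concentrations were tested over 48 hours in 96-well plates. Abbreviation: GI50, concentration required for 50% inhibition of growth.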 Activity calls are given as the source filed them. Cut-off read from the data, not from the text of the source: active = GI50 up to about 1.1 µM and inactive = higher.

Experiments:
Test in all cases: NCI tumour cell line growth inhibition, 48 h
A549 = test system: A549
ACHN = test system: ACHN
CAKI-1 = test system: CAKI-1
HL-60 = test system: HL-60
IGROV-1 = test system: IGROV-1
KM-20L2 = test system: KM-20L2
NCI-H226 = test system: NCI-H226
NCI-H23 = test system: NCI-H23
SF-539 = test system: SF-539
SK-MEL-28 = test system: SK-MEL-28
SK-OV-3 = test system: SK-OV-3
SR = test system: SR
U-251 = test system: U-251
DU-145 = test system: DU-145
MCF7 = test system: MCF7
MDA-MB-435 = test system: MDA-MB-435
MDA-N = test system: MDA-N
NCI-H522 = test system: NCI-H522
PC-3 = test system: PC-3
T47D = test system: T47D

Measured: GI50

CCCCCCc1cc(C(=O)Nc2cccc(C(F)(F)F)c2)nc(N)n1
inactive: A549 > 100 µM | ACHN > 100 µM | CAKI-1 > 100 µM | HL-60 > 100 µM | IGROV-1 > 100 µM | KM-20L2 > 100 µM | NCI-H226 > 100 µM | NCI-H23 > 100 µM | SF-539 > 100 µM | SK-MEL-28 > 100 µM | SK-OV-3 > 100 µM | SR > 100 µM | U-251 > 100 µM

COC12CCC(=O)C=C1c1ccccc1N2C(C)=O (stereo not drawn)
inactive: A549 > 100 µM | ACHN > 100 µM | CAKI-1 > 100 µM | HL-60 > 100 µM | IGROV-1 > 100 µM | KM-20L2 > 100 µM | NCI-H23 > 100 µM | SF-539 > 100 µM | SK-MEL-28 > 100 µM | SK-OV-3 > 100 µM | SR > 100 µM | U-251 > 100 µM

O=C(NCP(=O)(c1ccccc1)c1ccccc1)OCc1ccccc1
inactive: A549 66.8 µM | ACHN > 100 µM | CAKI-1 > 100 µM | DU-145 > 100 µM | HL-60 > 100 µM | IGROV-1 > 100 µM | MCF7 > 100 µM | MDA-MB-435 > 100 µM | MDA-N > 100 µM | NCI-H226 > 100 µM | NCI-H23 > 100 µM | NCI-H522 39.4 µM | PC-3 64.3 µM | SF-539 > 100 µM | SK-MEL-28 > 100 µM | SK-OV-3 67.3 µM | SR > 100 µM | T47D > 100 µM | U-251 84.5 µM

Cc1nc2c(ccc3ncccc32)[nH]1
inactive: A549 > 100 µM | ACHN > 100 µM | CAKI-1 > 100 µM | HL-60 > 100 µM | IGROV-1 > 100 µM | KM-20L2 > 100 µM | NCI-H23 > 100 µM | NCI-H522 > 100 µM | SF-539 > 100 µM | SK-MEL-28 > 100 µM | SK-OV-3 > 100 µM | U-251 > 100 µM

Cc1nn(C)cc1P(=S)(c1ccccc1)c1ccccc1
inactive: A549 55 µM | ACHN 61.7 µM | CAKI-1 95.3 µM | HL-60 18.6 µM | IGROV-1 > 100 µM | KM-20L2 > 100 µM | NCI-H23 > 100 µM | SF-539 > 100 µM | SK-MEL-28 > 100 µM | SK-OV-3 24.8 µM | SR 22.5 µM | U-251 92.5 µM

COC(=O)C1=C(c2ccc3c(c2)OCO3)OC(c2ccc3c(c2)OCO3)C1 (stereo not drawn)
inactive: A549 78.2 µM | ACHN 80.9 µM | CAKI-1 > 100 µM | HL-60 > 100 µM | IGROV-1 > 100 µM | KM-20L2 > 100 µM | NCI-H226 > 100 µM | NCI-H23 > 100 µM | SF-539 > 100 µM | SK-MEL-28 > 100 µM | SK-OV-3 > 100 µM | SR 74.5 µM | U-251 93.8 µM

O=C1c2ccccc2NC1(c1ccccc1)c1c(-c2ccccc2)[nH]c2ccccc12 (stereo not drawn)
inactive: A549 3.98 µM | ACHN 9.25 µM | CAKI-1 8.77 µM | HL-60 5.04 µM | IGROV-1 4.41 µM | KM-20L2 25.1 µM | NCI-H23 21.4 µM | SF-539 > 100 µM | SK-MEL-28 37.5 µM | SK-OV-3 37.5 µM | SR 3.65 µM | U-251 14.4 µM

COC/C=C\COC
inactive: A549 > 100 µM | ACHN > 100 µM | CAKI-1 > 100 µM | HL-60 > 100 µM | IGROV-1 > 100 µM | KM-20L2 > 100 µM | NCI-H226 > 100 µM | SK-MEL-28 > 100 µM | SK-OV-3 > 100 µM | U-251 > 100 µM

c1ccc2c(c1)C1CCCCCC21N1CCOCC1 (stereo not drawn)
inactive: A549 > 100 µM | ACHN > 100 µM | CAKI-1 > 100 µM | HL-60 44.6 µM | IGROV-1 > 100 µM | KM-20L2 > 100 µM | NCI-H226 92.9 µM | NCI-H23 > 100 µM | NCI-H522 52.4 µM | SF-539 > 100 µM | SK-MEL-28 > 100 µM | SK-OV-3 > 100 µM | U-251 78.5 µM

Cc1cc[n+]2c(c1)-c1cc(C)cc[n+]1CC2
inactive: A549 > 100 µM | ACHN > 100 µM | CAKI-1 > 100 µM | DU-145 > 100 µM | HL-60 > 100 µM | IGROV-1 51.2 µM | MCF7 > 100 µM | MDA-MB-435 > 100 µM | MDA-N > 100 µM | NCI-H226 > 100 µM | NCI-H23 84.5 µM | NCI-H522 29.4 µM | PC-3 > 76.7 µM | SF-539 > 100 µM | SK-MEL-28 > 100 µM | SK-OV-3 > 100 µM | SR > 100 µM | T47D > 100 µM | U-251 > 100 µM

Cn1c(=O)nc2n(-c3cc(C(F)(F)F)cc(C(F)(F)F)c3)c3ccccc3nc-2c1=O
inactive: A549 > 100 µM | ACHN 75.3 µM | CAKI-1 > 100 µM | HL-60 > 100 µM | IGROV-1 > 100 µM | KM-20L2 > 100 µM | NCI-H226 > 100 µM | NCI-H23 > 100 µM | SF-539 > 100 µM | SK-MEL-28 > 100 µM | SK-OV-3 > 100 µM | SR > 100 µM | U-251 > 100 µM
